Results: ChEMBL document CHEMBL2163194, “Production of cytotoxic glidobactins/luminmycins by Photorhabdus asymbiotica in liquid media and live crickets” (J Nat Prod, 2012)

Experiments:
NIH3T3 = experiment: Cytotoxicity against mouse NIH/3T3 cells assessed as reduction in cell viability after 72 hrs by MTT assay; format: cell-based; settings: nih3t3, 72 h
MIA PaCa-2 = experiment: Cytotoxicity against human MIAPaCa2 cells assessed as reduction in cell viability after 72 hrs by MTT assay; format: functional, cell-based; settings: MIA PaCa-2, 72 h
[1] = Inhibition of 20S proteasome in human MIAPaCa2 cells after 90 mins by fluorescence-based […]; format: cell-based; settings: mia paca-2

Compound | Activity (NIH3T3) | IC50 (MIA PaCa-2) [nM] | IC50 [1] [nM]
CCCCCCC/C=C/C=C/C(=O)N[C@H](C(=O)N[C@H]1C[C@@H](O)CCNC(=O)/C=C/[C@H](C)NC1=O)[C@@H](C)O [GLIDOBACTIN A] | Non-toxic | 7 | 69
CCCCCCC/C=C/C=C/C(=O)N[C@H](C(=O)N[C@H]1CCCCNC(=O)/C=C/[C@H](C)NC1=O)[C@@H](C)O [LUMINMYCIN A] | Non-toxic | 18 | 88
CC(C)CCCCC/C=C/C=C/C(=O)N[C@H](C(=O)N[C@H]1CCCCNC(=O)/C=C/[C@H](C)NC1=O)[C@@H](C)O [LUMINMYCIN D] | Non-toxic | 110 | 380
